Results from article PMC6582257, “Inhibition of Escherichia coli and Bacillus subtilis FtsZ Polymerization and Bacillus subtilis Growth by Dihydroxynaphtyl Aryl Ketones” (Frontiers in Microbiology, 2019).
“And” between values parts separate entries of the source, which are not always exact repeats. Equal entries are not always repeated. Where two headings read alike, the source gives them in different places.

What was measured:
B. subtilis [1] = assay: Growth curves in liquid Müller-Hinton culture, B. subtilis; type: cell-based, Bacillus subtilis; conditions: for effective concentration (total growth arrest): liquid culture
Method: (§1) Cells were grown in liquid culture medium Müller Hinton (MH) in the presence and absence of the compound. MH medium was inoculated with an overnight culture of each strain and grown until an OD600 of 0.6 was reached. Both cultures were then diluted to OD600 of 0.1 and subsequently divided into several cultures, where the controls (without the compound and with DMSO) and different concentrations of dNAK 4 were tested. Each experimental condition was assayed in 250 μL, six times, in a 96-well ELISA plate. The cultures were grown under agitation at 37°C in a plate spectrofluorimeter with absorbance module model TECAN Infinite M200 PRO and the OD600 was automatically registered every 15 min for 24 h.

B. subtilis [2] = assay: Live-cell imaging of cell division in CellASIC ONIX2 microfluidic chambers; type: cell-based, Bacillus subtilis; conditions: LB with 32 μM perfused 8 h, 37°C
E. coli = assay: as above; type: cell-based, Escherichia coli; conditions: LB with 32 μM perfused 8 h, 37°C
Method: In order to evaluate the effect of dNAK 4 at a cellular level, we designed a live-cell imaging approach using the microfluidics platform CellASIC ONIX2 (Merck) coupled to a Lionheart FX automated microscope (BioTek). This setup allowed us to directly monitor the division of E. coli and B. subtilis cells inside microchambers, under a precisely controlled temperature (37°C) and the continuous perfusion of fresh culture medium. The microscope was set up to take one picture of each chamber every 10 min during the whole experiment (20 h), in order to get a continuous view of the division process occurring in a group of cells and its response to the perfusion of dNAK 4. First, cells of each strain were inoculated into separate microchambers, perfusing LB medium for 4 h while monitoring cell growth. Afterwards, LB supplemented with 32 μM dNAK 4 was perfused during the next 8 h. Finally, LB medium without dNAK 4 was perfused during the last 8 h in order to monitor the effect of washing the compound. […] After washing the compound, some B. subtilis cells seemed to partially recover the ability to divide.
2. Live-cell imaging of E. coli and B. subtilis cell division while grown in microfluidic chambers, in the presence or absence of dNAK 4. […]

normal and cancer cell = system: normal and cancer cell; set-up: method as in Benites et al., 2016; conditions: ref Benites et al., 2016; cited from earlier work
E. coli K12 = assay: Growth curves in liquid Müller-Hinton culture, E. coli; type: cell-based, Escherichia coli; conditions: up to 32 μM, 37°C
Method: as §1

BsFtsZ [3] = target: T1, BsFtsZ (Bacillus subtilis, UniProt P17865); assay: GTP induced BsFtsZ polymerization by light scattering (PK/PEP GTP regeneration system); type: biochemical
T1 construct: made in house; host or cells: E. coli DH10B
Method: (§2) Polymerization of FtsZ was determined by light scattering. Light scattering was measured on a Perkin Elmer LS 50 spectrofluorimeter, illuminating with light at a wavelength of 350 nm (excitation) and recording at the same wavelength (emission). Excitation and emission bandwidth were 7 nm and a 4% transmittance filter was used in the emission path. Temperature was kept constant at 30°C.
(§3) Polymerization of FtsZ induced by GTP [with GTP regeneration system PK/PEP (Margalit et al., [2004])] was measured in the absence and the presence of dNAK 4. 12.5 μM FtsZ was pre-incubated in 50 mM HEPES pH 7.3, 50 mM KCl, 10 mM MgCl2, 1% DMSO, and 1 mM PEP. The reaction was started by adding the compound (at the concentration indicated in the figures), 4 units of PK and 1 mM GTP. For each polymerization reaction, a baseline was registered, which corresponds to the light scattering after adding the compound and prior to the induction of polymerization by the addition of GTP and PK.

[4] = system: Pseudomonas aeruginosa BEM12; assay: Growth inhibition halos on bacterial lawns; type: cell-based; set-up: key to growth inhibition halo: −: Absence (-) or presence (+) of growth inhibition halos on different bacterial lawns; Absence (-) or presence (+) of growth inhibition halos on different bacterial lawns; conditions: for growth inhibition halo: 5 µl, 37°C 5-6 h
Method: (§4) TABLE SM1. Effect of dNAK 4 tested directly on the growth of different bacterial […]
(§5) Strains Amount of dNAK 4 in DMSO 30% […]
(§6) Absence (-) or presence (+) of growth inhibition halos on different bacterial lawns.
(§7) The bacterial lawns for each strain listed in this Table were prepared as follow:
(§8) Bacterial cells were grown in Müller-Hinton (MH) media until an OD600 = 0.3. 300 µl of each culture was mixed with 5 ml of MH soft agar and poured into a plate containing 20 ml of MH hard agar. Once cooled, 5 µl of dNAK 4 dissolved in DMSO […]
(§9) the top agar and incubated at 37°C during 5-6 h until growth inhibition halos were […]
(§10) growth inhibition halos in any of the strains tested. As positive control the antibiotic minocycline was used. The experiments were performed by triplicate. The bacterial strains used in these experiments belong to our laboratory collection.

Escherichia coli K12 = assay: Growth inhibition halos on bacterial lawns; type: cell-based; set-up: key to growth inhibition halo: −: Absence (-) or presence (+) of growth inhibition halos on different bacterial lawns; Absence (-) or presence (+) of growth inhibition halos on different bacterial lawns; conditions: for growth inhibition halo: 5 µl, 37°C 5-6 h
Method: as §4, §5, §6, §7, §8, §9, §10

Bacillus subtilis BEM54 = assay: Growth inhibition halos on bacterial lawns; type: cell-based; set-up: key to growth inhibition halo: −: Absence (-) or presence (+) of growth inhibition halos on different bacterial lawns; Absence (-) or presence (+) of growth inhibition halos on different bacterial lawns; conditions: for growth inhibition halo: 5 µl, 37°C 5-6 h
Method: as §4, §5, §6, §7, §8, §9, §10

[5] = system: Enterobacter aerogenes BEM27; assay: Growth inhibition halos on bacterial lawns; type: cell-based; set-up: key to growth inhibition halo: −: Absence (-) or presence (+) of growth inhibition halos on different bacterial lawns; Absence (-) or presence (+) of growth inhibition halos on different bacterial lawns; conditions: for growth inhibition halo: 5 µl, 37°C 5-6 h
Method: as §4, §5, §6, §7, §8, §9, §10

Proteus mirabilis BEM87 = assay: Growth inhibition halos on bacterial lawns; type: cell-based; set-up: key to growth inhibition halo: −: Absence (-) or presence (+) of growth inhibition halos on different bacterial lawns; Absence (-) or presence (+) of growth inhibition halos on different bacterial lawns; conditions: for growth inhibition halo: 5 µl, 37°C 5-6 h
Method: as §4, §5, §6, §7, §8, §9, §10

EcFtsZ [6] = target: T2, EcFtsZ (Escherichia coli, UniProt P0A9A6); assay: GDP induced EcFtsZ polymerization by light scattering; type: biochemical; conditions: 32 μM compound, 2 mM GDP, 12.5 μM protein
T2 construct: made in house; host or cells: E. coli BL21 (DE3)
Method: as §2
(§11) Polymerization of FtsZ induced by GDP was measured in the absence and the presence of dNAK 4. 12.5 μM FtsZ was pre-incubated in 50 mM HEPES pH 7.3, 50 mM KCl, 10 mM MgCl2, 1% DMSO, and 2 mM GDP. The reaction was started by adding the compound at 32 μM final concentration.

BsFtsZ [7] = target: T1, BsFtsZ; assay: GDP induced BsFtsZ polymerization by light scattering; type: biochemical; conditions: 32 μM compound, 2 mM GDP, 12.5 μM protein
Method: as §2, §11

[8] = system: Staphylococcus aureus BEM42; assay: Growth inhibition halos on bacterial lawns; type: cell-based; set-up: key: −: Absence (-) or presence (+) of growth inhibition halos on different bacterial lawns; Absence (-) or presence (+) of growth inhibition halos on different bacterial lawns; conditions: 5 µl, 37°C 5-6 h
Method: as §4, §5, §6, §7, §8, §9, §10

tubulin = target: tubulin; set-up: method as in Gutiérrez et al., 2015; conditions: ref Gutiérrez et al., 2015; cited from earlier work
EcFtsZ [9] = target: T2, EcFtsZ; assay: GTP induced EcFtsZ polymerization by light scattering (PK/PEP GTP regeneration system); type: biochemical
Method: as §2, §3

[10] = at the concentration tested (0.05-2 µg)
[11] = calculated from the EcFtsZ polymerization inhibition by the compounds, read-out: IFP (inhibition of EcFtsZ polymerization) expressed as IC50

T2 sequence (P0A9A6 whole entry): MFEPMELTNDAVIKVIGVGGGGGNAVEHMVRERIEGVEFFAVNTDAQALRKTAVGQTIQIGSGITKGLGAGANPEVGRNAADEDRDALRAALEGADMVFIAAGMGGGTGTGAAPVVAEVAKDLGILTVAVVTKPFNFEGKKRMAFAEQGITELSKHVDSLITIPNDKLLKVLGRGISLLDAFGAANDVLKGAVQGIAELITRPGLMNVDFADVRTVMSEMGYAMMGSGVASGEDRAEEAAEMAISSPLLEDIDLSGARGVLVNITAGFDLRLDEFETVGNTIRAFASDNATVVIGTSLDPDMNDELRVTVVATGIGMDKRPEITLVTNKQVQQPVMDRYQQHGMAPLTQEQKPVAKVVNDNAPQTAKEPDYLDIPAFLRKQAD
T1 sequence (P17865 whole entry): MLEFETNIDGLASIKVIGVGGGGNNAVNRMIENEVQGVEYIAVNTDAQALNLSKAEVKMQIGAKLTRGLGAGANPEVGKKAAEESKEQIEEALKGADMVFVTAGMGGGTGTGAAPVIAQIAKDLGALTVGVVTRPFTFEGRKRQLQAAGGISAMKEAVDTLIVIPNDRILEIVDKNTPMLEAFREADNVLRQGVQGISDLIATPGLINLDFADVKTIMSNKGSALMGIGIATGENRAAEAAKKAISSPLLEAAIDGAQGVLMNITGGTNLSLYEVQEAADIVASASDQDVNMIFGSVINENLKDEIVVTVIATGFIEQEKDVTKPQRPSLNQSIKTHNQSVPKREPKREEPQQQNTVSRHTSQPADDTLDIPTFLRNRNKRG

O=C(c1ccc[nH]1)c1cc(O)c2ccccc2c1O [dNAK 4, (1,4-dihydroxy-naphthalen-2-yl)-(1H-pyrrol-2-yl)-methanone]
no growth: B. subtilis growth in liquid culture (B. subtilis [1]; 32 μM, during 16 h, Müller-Hinton, 37°C)
no effect: effect on growth of E. coli cells (E. coli) | effect on normal and cancer cell proliferation (normal and cancer cell)
no inhibitory effect: effect on E. coli K12 growth in liquid culture (E. coli K12) | inhibitory effect in plate assays (Escherichia coli K12; [10]) | inhibitory effect in plate assays [5, 10]
8 µg/mL: effective concentration (total growth arrest) (B. subtilis [1]; conversion of 32 μM)
9.13 ± 0.66 µM: IC50 (BsFtsZ [3])
complete growth arrest: effect on growth of B. subtilis cells (B. subtilis [2])
−: growth inhibition halo ([4]; 0.05 µg in DMSO 30%) | growth inhibition halo ([4]; 0.1 µg in DMSO 30%) | growth inhibition halo (Escherichia coli K12; 0.05 µg in DMSO 30%) | growth inhibition halo (Escherichia coli K12; 0.1 µg in DMSO 30%) | growth inhibition halo (Escherichia coli K12; 0.3 µg in DMSO 30%) | growth inhibition halo (Escherichia coli K12; 0.5 µg in DMSO 30%) | growth inhibition halo (Escherichia coli K12; 1 µg in DMSO 30%) | growth inhibition halo (Escherichia coli K12; 2 µg in DMSO 30%) | growth inhibition halo (Bacillus subtilis BEM54; 0.05 µg in DMSO 30%) | growth inhibition halo ([5]; 0.05 µg in DMSO 30%) | growth inhibition halo ([5]; 0.1 µg in DMSO 30%) | growth inhibition halo ([5]; 0.3 µg in DMSO 30%) | growth inhibition halo ([5]; 0.5 µg in DMSO 30%) | growth inhibition halo ([5]; 1 µg in DMSO 30%) | growth inhibition halo ([5]; 2 µg in DMSO 30%) | growth inhibition halo (Proteus mirabilis BEM87; 0.05 µg in DMSO 30%) | growth inhibition halo (Proteus mirabilis BEM87; 0.1 µg in DMSO 30%) | growth inhibition halo (Proteus mirabilis BEM87; 0.3 µg in DMSO 30%) | growth inhibition halo ([8]; 0.05 µg in DMSO 30%)
4.6 µM and 4.4 µM: IC50 (EcFtsZ [9]; from steady-state slope of light scattering increment vs concentration, PK/PEP GTP regeneration system, read-out: IFP expressed as IC50 (converted))
induced: polymerization of EcFtsZ with GDP (EcFtsZ [6]) | polymerization of BsFtsZ with GDP (BsFtsZ [7])
32 µM: effective concentration (total growth arrest) (B. subtilis [1])
2.3 ± 0.1 µM: IC50 (EcFtsZ [9]; from slope of light scattering increment after depolymerization vs concentration, PK/PEP GTP regeneration system, read-out: IFP expressed as IC50 (converted))
0.1 µg: lowest amount giving growth inhibition in plate assays (Bacillus subtilis BEM54; bacterial lawn, B. subtilis)
0.3 to 0.5 µg: amount giving growth inhibition in plate assays ([4]; bacterial lawn, P. aeruginosa) | amount giving growth inhibition in plate assays (Proteus mirabilis BEM87; bacterial lawn, P. mirabilis)
+: growth inhibition halo ([4]; 0.3 µg in DMSO 30%) | growth inhibition halo ([4]; 0.5 µg in DMSO 30%) | growth inhibition halo ([4]; 1 µg in DMSO 30%) | growth inhibition halo ([4]; 2 µg in DMSO 30%) | growth inhibition halo (Bacillus subtilis BEM54; 0.1 µg in DMSO 30%) | growth inhibition halo (Bacillus subtilis BEM54; 0.3 µg in DMSO 30%) | growth inhibition halo (Bacillus subtilis BEM54; 0.5 µg in DMSO 30%) | growth inhibition halo (Bacillus subtilis BEM54; 1 µg in DMSO 30%) | growth inhibition halo (Bacillus subtilis BEM54; 2 µg in DMSO 30%) | growth inhibition halo (Proteus mirabilis BEM87; 0.5 µg in DMSO 30%) | growth inhibition halo (Proteus mirabilis BEM87; 1 µg in DMSO 30%) | growth inhibition halo (Proteus mirabilis BEM87; 2 µg in DMSO 30%) | growth inhibition halo ([8]; 0.1 µg in DMSO 30%) | growth inhibition halo ([8]; 0.3 µg in DMSO 30%) | growth inhibition halo ([8]; 0.5 µg in DMSO 30%) | growth inhibition halo ([8]; 1 µg in DMSO 30%) | growth inhibition halo ([8]; 2 µg in DMSO 30%)
1020 ± 230 nM: Kd (tubulin)

O=C(c1ccco1)c1cc(O)c2ccccc2c1O [dNAK 3]
39 µM: IC50 (EcFtsZ [9]; [11])

O=C(c1ccc[nH]1)c1cc(O)ccc1O [dPAK 4, (2,5-dihydroxy-phenyl)-(1H-pyrrol-2-yl)-methanone]
no inhibitory effect: inhibitory effect over BsFtsZ polymerization (BsFtsZ [3]; 2-64 µM, 1% DMSO) | inhibitory effect over EcFtsZ polymerization (EcFtsZ [9]; 2-64 µM, 1% DMSO)

O=C(c1ccsc1)c1cc(O)c2ccccc2c1O [dNAK 2]
44 µM: IC50 (EcFtsZ [9]; [11])

O=C(c1cccs1)c1cc(O)c2ccccc2c1O [dNAK 1]
100 µM: IC50 (EcFtsZ [9]; [11])

COc1cc(C(=O)c2cc(O)c3ccccc3c2O)cc(OC)c1OC [dNAK 5]
81.5 µM: IC50 (EcFtsZ [9]; [11])
